# Patent publication US7241803B2, “Compounds for inhibition of HIV infection by blocking HIV entry” (New York Blood Center, priority 2002, dated 2007)
# Legend:
# [1] = biological target: gp41 six-helix bundle formed by N36 and C34-FITC (Human immunodeficiency virus type 1 group M subtype B, UniProt P04578); settings: 200 μg/ml; for gp41 six-helix bundle formation in FN-PAGE: added after N36 preincubated with C34-FITC; for gp41 six-helix bundle band in FN-PAGE: preincubated with N36 before addition of C34-FITC
# Chain of gp41 six-helix bundle formed by N36 and C34-FITC (P04578 546-581): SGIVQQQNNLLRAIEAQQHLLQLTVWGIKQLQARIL
# Experimental: Fluorescence native polyacrylamide gel electrophoresis (FN-PAGE). FN-PAGE was performed as previously described (32). Briefly, 18% pre-cast Tris-Glycine gels and Novex X-Cell II Mini cell (Invitrogen, Carlsbad, Calif.) were used for native-PAGE. […] In the control, N36 was incubated with C34-FITC at 37° C. for 30 min before addition of the compounds. After incubation at 37° C. for another 30 min, the mixture was diluted in Tris-Glycine native sample buffer, then loaded to 10×1.0 mm wells. Gel electrophdrosis was carried out with 125 V constant voltage at room temperature for about 90 min in Tris-Glycine native running buffer. Immediately after electrophoresis, image of the fluorescence bands in the gel was taken by the FluorChem 8800 Imaging System (Alpha Innotech corp., San Leandro, Calif.) using a transillumination UV light source with excitation wavelength at 302 nm and a fluorescence filter with emission wavelength at 520 nm.
# HIV-1IIIB = test: inhibition of HIV-1IIIB replication (p24 production) in MT-2 cells; format: cell-based; settings: for IC50: HIV-1IIIB replication, MT-2 cells; for inhibitory activity on HIV-1IIIB replication: concentration up to 80 μg/ml
# Source text: Assessment of anti-HIV-1 infectivity. […] Reactions were terminated by addition of 1N H2SO4.
# [2] = system: HIV-1 92US657 (clade B, R5); test: infection of PBMCs by primary HIV-1 isolate, p24 production; format: cell-based; settings: Primary 92US657 (clade B, R5)
# Source text: (§1) Culture media were changed every 3 days.
# [3] = system: HIV-1 93IN101 (clade C, R5); test: as above; format: cell-based; settings: Primary 93IN101 (clade C, R5)
# Source text: as §1
# [4] = system: HIV-1 BCF02 (Group O, R5); test: as above; format: cell-based
# Source text: as §1
# [5] = system: HIV-1 94UG103 (clade A, X4R5); test: as above; format: cell-based; settings: Primary 94UG103 (clade A, X4R5)
# Source text: as §1
# MT-2 cells = settings: trypan blue, 2 hr
# Experimental: Detection of in vitro cytotoxicity. The in vitro cytotoxicity of compounds for MT-2 cells was measured using trypan blue dye exclusion assay (41). Briefly, 100 μl of MT-2 cells (2×10^6/ml) were incubated with an equal volume of a compound diluted in culture media at graded concentrations at 37° C. for 2 hr. Ten microliters of cell suspension was transferred to a well of round-bottom plate and mixed with 10 μl of 0.04% trypan blue solution. The number of viable cells was counted using a hemocytometer under a microscope. The CC50 (the concentration for 50% cytotoxicity) values were calculated using the software Calcusyn (6).
# [6] = system: HIV-1 93TH051 (clade E, X4R5); settings: Primary 93TH051 (clade E, X4R5), PBMCs
# Experimental: (§2) Inhibitory activity of compounds on infection by primary HIV-1 isolates was determined as previously described (41). PBMCs were isolated from the blood of healthy donors at the New York Blood Center by standard density gradient centrifugation using Histopaque-1077 (Sigma). The cells were plated in 75 cm^2 plastic flasks and incubated at 37° C. for 2 hrs. The nonadherent cells were collected and resuspended at 5×10^6 in 10 ml RPMI-1640 medium containing 10% FBS, 5 μg/ml PHA and 100 U/ml IL-2 (Sigma), followed by incubation at 37° C. for 3 days. The PHA-stimulated cells were infected with corresponding primary HIV-1 isolates at 0.01 multiplicity of infection (MOI) in the absence or presence of a compound at graded concentrations. Culture media were changed every 3 days. The supernatants were collected 7 days post-infection and tested for p24 antigen by ELISA as described above. The percent inhibition of p24 production and IC50 values were calculated as described above.
# [7] = system: HIV-1 RU570 (clade G, R5); settings: Primary RU570 (clade G, R5), PBMCs
# Experimental: as §2
# [8] = system: HIV-1 93BR020 (clade F, X4R5); settings: Primary 93BR020 (clade F, X4R5), PBMCs
# Experimental: as §2
Compound,gp41 six-helix bundle formation in FN-PAGE [1],gp41 six-helix bundle band in FN-PAGE [1],IC50 (HIV-1IIIB),inhibitory activity on HIV-1IIIB replication (HIV-1IIIB),IC50 (μg/ml) for inhibition of p24 production [2],IC50 (μg/ml) for inhibition of p24 production [3],IC50 (μg/ml) for inhibition of p24 production [4],IC50 (μg/ml) for inhibition of p24 production [5],CC50 (MT-2 cells),IC50 (μg/ml) for inhibition of p24 production [6],IC50 (μg/ml) for inhibition of p24 production [7],IC50 (μg/ml) for inhibition of p24 production [8]
Cc1ccc(C)n1-c1ccc(C(=O)O)c(O)c1 [NB-2],not inhibited,the intensity of the upper bands were significantly decreased,0.24 ± 0.05 µg/mL,significantly inhibited,10.41 ± 1.88 µg/mL,1.05 ± 0.23 µg/mL,0.21 ± 0.12 µg/mL,5.92 ± 0.06 µg/mL,305.60 ± 5.04 µg/mL,1.15 ± 0.14 µg/mL,23.12 ± 1.23 µg/mL,2.50 ± 0.01 µg/mL
O=C(O)c1cc(-n2cccc2)ccc1Cl [NB-64],not inhibited,the intensity of the upper bands were significantly decreased,0.49 ± 0.09 µg/mL,significantly inhibited,6.60 ± 1.80 µg/mL,4.38 ± 0.19 µg/mL,1.31 ± 0.90 µg/mL,7.94 ± 0.96 µg/mL,>500 µg/mL,5.24 ± 1.80 µg/mL,8.81 ± 0.24 µg/mL,1.05 ± 0.18 µg/mL
